Results reported in paper PMC12948427 (The Journal of Clinical Investigation, 2025).
“And” between values parts separate entries of the source, which are not always exact repeats. Equal values may be shown once. Read-outs that look alike come from different tables or passages of the source. Ends that are not written are not given here.

Legend:
[1] = target: hHGS 1-390-6 × HIS protein (Homo sapiens, UniProt O14964); assay: SPR binding of immobilized M peptides to HGS; settings: without RTB; read-out: KD, binding affinity of peptide with HGS (SPR)
in vitro [2] = settings: mouse, 17Cl-1 cells, cell viability, Figure S7E
in vitro [3] = settings: Vero E6 cells, cell viability, Figure S7F
in vitro [4] = settings: human, Calu-3 cells, cell viability, Figure S7G

Chain of hHGS 1-390-6 × HIS protein (O14964 1-390): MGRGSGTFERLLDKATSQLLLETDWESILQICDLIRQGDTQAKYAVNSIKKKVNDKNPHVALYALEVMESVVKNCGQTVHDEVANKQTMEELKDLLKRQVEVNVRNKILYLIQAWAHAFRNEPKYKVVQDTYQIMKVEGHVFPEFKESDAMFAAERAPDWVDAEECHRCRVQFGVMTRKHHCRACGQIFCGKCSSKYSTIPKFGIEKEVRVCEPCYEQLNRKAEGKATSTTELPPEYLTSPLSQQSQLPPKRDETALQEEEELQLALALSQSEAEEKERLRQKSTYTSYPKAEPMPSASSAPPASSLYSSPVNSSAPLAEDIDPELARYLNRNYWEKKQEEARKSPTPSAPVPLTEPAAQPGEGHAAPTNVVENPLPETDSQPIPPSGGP

## GRKKRRQRRRPPQESELVIGAVILR [M146]
Calu-3 cells; Calu-3, up to 10^4 nM
  cytotoxicity (CCK-8): no significant cytotoxicity
Calu-3 cells; peptide concentration 2000
  cell viability, Figure S7G: 95.941 and 95.203
Calu-3 cells; peptide concentration 10000
  cell viability, Figure S7G: 97.048 and 96.679
Calu-3 cells; peptide concentration 20000
  cell viability, Figure S7G: 96.679
Calu-3 cells; peptide concentration 40000
  cell viability, Figure S7G: 96.31 and 87.4539
Calu-3 cells; peptide concentration 80000
  cell viability, Figure S7G: 94.0959 and 97.048
Calu-3 cells; peptide concentration 120000
  cell viability, Figure S7G: 77.1218 and 97.786 and 96.31
Calu-3 cells; peptide concentration 160000
  cell viability, Figure S7G: 66.0517 and 74.9077
Calu-3 cells; peptide concentration 200000
  cell viability, Figure S7G: 81.9188 and 68.2657
Calu-3 cells; peptide concentration 400000
  cell viability, Figure S7G: 25.2399 and 16.7897
Calu-3 cells; peptide concentration 800000
  cell viability, Figure S7G: 14.4649
Calu-3 cells; peptide concentration 1200000
  cell viability, Figure S7G: 11.5867 and 10.5535
Calu-3 cells; peptide concentration 1600000
  cell viability, Figure S7G: 13.7638 and 14.6125
Vero E6 cells; Vero E6, up to 10^4 nM
  cytotoxicity (CCK-8): no significant cytotoxicity
Vero E6 cells; peptide concentration 2000
  cell viability, Figure S7F: 100.769 and 98.8462
Vero E6 cells; peptide concentration 10000
  cell viability, Figure S7F: 100.769 and 99.2308
Vero E6 cells; peptide concentration 20000
  cell viability, Figure S7F: 100 and 96.5385
Vero E6 cells; peptide concentration 40000
  cell viability, Figure S7F: 96.9231 and 96.1538
Vero E6 cells; peptide concentration 80000
  cell viability, Figure S7F: 86.9231
Vero E6 cells; peptide concentration 120000
  cell viability, Figure S7F: 92.3077
Vero E6 cells; peptide concentration 160000
  cell viability, Figure S7F: 75.7692 and 76.9231
Vero E6 cells; peptide concentration 200000
  cell viability, Figure S7F: 78.4615 and 78.8462
Vero E6 cells; peptide concentration 400000
  cell viability, Figure S7F: 21.7308 and 21.1538
Vero E6 cells; peptide concentration 800000
  cell viability, Figure S7F: 13.7308 and 14.2308
Vero E6 cells; peptide concentration 1200000
  cell viability, Figure S7F: 13.4615 and 14.1154
Vero E6 cells; peptide concentration 1600000
  cell viability, Figure S7F: 13.0385 and 11.8077
[1]
  Kd: 5.73 nM
In vitro [2]; peptide concentration 1000
  viability at 24 h: 99.7%
In vitro [2]; peptide concentration 4000
  viability at 24 h: 103%
In vitro [2]; peptide concentration 8000
  viability at 24 h: 95.8%
In vitro [2]; peptide concentration 10000
  viability at 24 h: 107%
In vitro [2]; peptide concentration 20000
  viability at 24 h: 92.7%
In vitro [2]; peptide concentration 40000
  viability at 24 h: 91%
In vitro [2]; peptide concentration 80000
  viability at 24 h: 71.4%
In vitro [2]; peptide concentration 100000
  viability at 24 h: 84.5%
In vitro [2]; peptide concentration 200000
  viability at 24 h: 84%
In vitro [3]; peptide concentration 2000
  viability at 24 h: 98.5%
In vitro [3]; peptide concentration 10000
  viability at 24 h: 97.7%
In vitro [3]; peptide concentration 20000
  viability at 24 h: 94.2%
In vitro [3]; peptide concentration 40000
  viability at 24 h: 93.1%
In vitro [3]; peptide concentration 80000
  viability at 24 h: 91.9%
In vitro [3]; peptide concentration 120000
  viability at 24 h: 88.8%
In vitro [3]; peptide concentration 160000
  viability at 24 h: 80.8%
In vitro [3]; peptide concentration 200000
  viability at 24 h: 70.8%
In vitro [3]; peptide concentration 400000
  viability at 24 h: 20%
In vitro [3]; peptide concentration 800000
  viability at 24 h: 12%
In vitro [3]; peptide concentration 1200000
  viability at 24 h: 11.4%
In vitro [3]; peptide concentration 1600000
  viability at 24 h: 14.5%
17Cl-1 cells; 17Cl-1, up to 10^4 nM
  cytotoxicity (CCK-8): no significant cytotoxicity
17Cl-1 cells; peptide concentration 1000
  cell viability, Figure S7E: 99.2599 and 92.2943
17Cl-1 cells; peptide concentration 4000
  cell viability, Figure S7E: 104.049 and 106.226
17Cl-1 cells; peptide concentration 8000
  cell viability, Figure S7E: 108.838
17Cl-1 cells; peptide concentration 10000
  cell viability, Figure S7E: 97.5185 and 100.566
17Cl-1 cells; peptide concentration 20000
  cell viability, Figure S7E: 112.32 and 104.049
17Cl-1 cells; peptide concentration 40000
  cell viability, Figure S7E: 96.2125 and 97.0832
17Cl-1 cells; peptide concentration 60000
  cell viability, Figure S7E: 82.2812 and 103.613 and 98.3892
17Cl-1 cells; peptide concentration 80000
  cell viability, Figure S7E: 90.5529
17Cl-1 cells; peptide concentration 100000
  cell viability, Figure S7E: 97.0832 and 87.5054
17Cl-1 cells; peptide concentration 200000
  cell viability, Figure S7E: 89.6822 and 71.8328
In vitro [4]; peptide concentration 2000
  viability at 24 h: 83.8%
In vitro [4]; peptide concentration 10000
  viability at 24 h: 95.2%
In vitro [4]; peptide concentration 20000
  viability at 24 h: 94.8%
In vitro [4]; peptide concentration 40000
  viability at 24 h: 93.7%
In vitro [4]; peptide concentration 80000
  viability at 24 h: 92.6%
In vitro [4]; peptide concentration 160000
  viability at 24 h: 85.6%
In vitro [4]; peptide concentration 200000
  viability at 24 h: 83%
In vitro [4]; peptide concentration 400000
  viability at 24 h: 24.4%
In vitro [4]; peptide concentration 800000
  viability at 24 h: 13%
In vitro [4]; peptide concentration 1200000
  viability at 24 h: 11%
In vitro [4]; peptide concentration 1600000
  viability at 24 h: 11.7%
